Data on 2 compounds can be found in publication PMC11284788, “NN1213 – A Potent, Long-Acting, and Selective Analog of Human Amylin” (Journal of Medicinal Chemistry, 2024).

Data set [1] relates to rats. Particulars: cited from earlier work. The text has this:
SEM is the standard error of the mean. || From the daily consumption of food observed in the DIO rats, the steep decrease around day 2 is a typical pattern observed with appetite-reducing agents in rodents.[31]

The test system of data set [2] is cCTR. The experiment in a line: Species-specific cAMP assay, cCTR. Particulars: cAMP HTRF, transiently transfected BHK cells, 30 min room temperature, five experiments. A general note: Cyclic AMP is a second messenger, typically raised through Gs and lowered through Gi signalling.
Data set [3] addresses T1, mAMY3R (Mus musculus, UniProt Q60755+Q9WUP1).
T1 sequence (Q60755 42-496 isoform Q60755-2 limits assumed): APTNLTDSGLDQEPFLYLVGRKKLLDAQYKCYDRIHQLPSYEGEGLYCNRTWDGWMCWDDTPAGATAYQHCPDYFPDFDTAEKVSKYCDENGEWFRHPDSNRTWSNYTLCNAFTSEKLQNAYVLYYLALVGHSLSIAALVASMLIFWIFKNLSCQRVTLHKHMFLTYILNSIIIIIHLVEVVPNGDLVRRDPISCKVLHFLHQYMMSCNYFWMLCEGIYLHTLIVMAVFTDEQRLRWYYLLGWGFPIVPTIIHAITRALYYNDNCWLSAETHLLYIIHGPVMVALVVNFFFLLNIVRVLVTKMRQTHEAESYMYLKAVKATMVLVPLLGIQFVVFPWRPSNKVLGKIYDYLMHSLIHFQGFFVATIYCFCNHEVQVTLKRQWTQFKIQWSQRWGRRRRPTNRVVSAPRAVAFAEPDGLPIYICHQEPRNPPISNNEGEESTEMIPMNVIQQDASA
T1 sequence (Q9WUP1 24-147 partner limits assumed): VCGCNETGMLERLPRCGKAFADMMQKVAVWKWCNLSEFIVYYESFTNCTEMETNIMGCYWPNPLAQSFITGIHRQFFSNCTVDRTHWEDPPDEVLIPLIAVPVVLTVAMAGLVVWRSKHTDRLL
The data set is described as follows: Mouse receptor cAMP HTRF assay (BacMam, HeLa), mAMY3R. Particulars: ratio of cAMP EC50 values, mouse receptors. On the technique in general: TR-FRET usually uses a lanthanide donor and a delayed reading to cut background.
Description: (§1) Mouse Receptors (Functional Assay Only). Cell culture: HeLa cells were cultured in an incubator at 37 °C and 5% CO2, in cell culture medium (DMEM with 10% [v/v] FBS, 1% [w/w] penicillin/streptomycin).
(§2) Cell seeding in T75 flasks (day 1): The day before transfection of the cells, 2 x 10^6 HeLa cells were seeded in three T75 flasks and incubated overnight. Media was removed from 1–2 T175 flasks and cells were washed once with Dulbecco PBS (with Mg2+ and Ca2+). Cells were detached with 2 mL TrypLE Express for 5 min in an incubator. Five mL pre-warmed media was added to each T75 flask and mixed with the cell suspension. Cells were counted in 100 µL of this suspension. The cell suspension was centrifuged at 1200 rpm for 4 min and the supernatant was discarded. The cells were re-suspended in media and 2 x 10^6 cells were seeded in approximately 15 mL in each of the three T75 flasks. The flasks were incubated overnight.
(§3) with 20 µL poly-d-lysin/well for 2–3 h at 37 °C. The plates were washed twice with PBS and allowed
(§4) Transfection of cells (day 2): Reagents were acclimated to room temperature for 30 min. Media was
(§5) removed from the T75 flasks, and cells were washed once with PBS (with Mg2+ and Ca2+). Cells were
(§6) Seeding of transfected cells in assay plates (day 2): Following the 3-h transduction, T75 flasks were
(§7) washed once with PBS (with Mg2+ and Ca2+). […]
mL pre-warmed media and counted.

Data set [4] relates to cAMY3R. The experiment in a line: Whole-cell competition binding, cAMY3R. Particulars: IC50 for the CTR divided by that of the AMYR, canine receptors.
For data set [5], the target named is T2, mCTR (Mus musculus, UniProt Q60755).
T2 sequence (Q60755 42-496 isoform Q60755-2 limits assumed): T1 sequence (Q60755 42-496 isoform Q60755-2 limits assumed)
The data set is described as follows: Mouse receptor cAMP HTRF assay (BacMam, HeLa), mCTR.
Description: as §1, §2, §3, §4, §5, §6, §7
mL pre-warmed media and counted.

The conditions of data set [6]: cited from earlier work. From the text:
The major chemical degradation products of pramlintide have been identified to include deamidation and isomerization of asparagine residues in positions 3, 21, and 22 and to a lesser degree in positions 14 and 35.[22] Reduction of these deamidation reactions in pramlintide has been obtained by acidic formulation.[23]

In data set [7] the test system is cAMY3R. The data set is described as follows: Species-specific cAMP assay, cAMY3R.
In data set [8] the test system is cAMY1R. The experiment in a line: Species-specific cAMP assay, cAMY1R.
Data set [9] relates to cAMY1R. The data set is described as follows: Whole-cell competition binding, cAMY1R. Particulars: IC50 for the CTR divided by that of the AMYR, canine receptors.
Where [10] appears, read: single sc injection of 30 nmol/kg, published previously.
Setting [11] is: cAMP HTRF, transiently transfected BHK cells, 30 min room temperature, five experiments.
[12] abbreviates: ratio of cAMP EC50 values, canine receptors.

For orientation: EC50 means the concentration that produces a half-maximal response.

For the compound `CC[C@H](C)[C@H](NC(=O)[C@@H]1CCCN1C(=O)CNC(=O)[C@H](Cc1ccccc1)NC(=O)[C@H](CC(N)=O)NC(=O)[C@H](CC(N)=O)NC(=O)[C@H](CO)NC(=O)[C@H](CO)NC(=O)[C@H](Cc1c[nH]cn1)NC(=O)[C@H](CCCNC(=N)N)NC(=O)[C@H](CC(C)C)NC(=O)[C@H](Cc1ccccc1)NC(=O)[C@H](CCC(=O)O)NC(=O)[C@H](C)NC(=O)[C@H](CC(C)C)NC(=O)[C@H](CCCNC(=N)N)NC(=O)[C@H](CCC(N)=O)NC(=O)[C@@H](NC(=O)[C@H](C)NC(=O)[C@@H]1CSSC[C@H](NC(=O)[C@H](CCCCN)NC(=O)CC[C@H](NC(=O)CCCCCCCCCCCCCCCCCCC(=O)O)C(=O)O)C(=O)N[C@@H](CC(N)=O)C(=O)N[C@@H]([C@@H](C)O)C(=O)N[C@@H](C)C(=O)N[C@@H]([C@@H](C)O)C(=O)N1)[C@@H](C)O)C(=O)N[C@@H](CC(C)C)C(=O)N1CCC[C@H]1C(=O)N1CCC[C@H]1C(=O)N[C@H](C(=O)N[C@@H](CC(N)=O)C(=O)N[C@H](C(=O)NCC(=O)N[C@@H](CO)C(=O)N[C@@H](CC(N)=O)C(=O)N[C@H](C(=O)N1CCC[C@H]1C(N)=O)[C@@H](C)O)C(C)C)[C@@H](C)O` [cagrilintide], in data set [1], the “reduction in food intake in rats” value is 45%. In [1] (setting [10]), the “reduction of food intake 0−24 h” value is recorded as 85% and the “reduction of food intake 24–48 h” value is listed as 84%.

Consider `CC[C@H](C)[C@H](NC(=O)[C@@H]1CCCN1C(=O)CNC(=O)[C@H](Cc1ccccc1)NC(=O)[C@H](CC(N)=O)NC(=O)[C@H](CC(N)=O)NC(=O)[C@H](CO)NC(=O)[C@H](CO)NC(=O)[C@H](Cc1c[nH]cn1)NC(=O)[C@@H](NC(=O)[C@H](CC(C)C)NC(=O)[C@H](Cc1ccccc1)NC(=O)[C@H](CC(N)=O)NC(=O)[C@H](C)NC(=O)[C@H](CC(C)C)NC(=O)[C@H](CCCNC(=N)N)NC(=O)[C@H](CCC(N)=O)NC(=O)[C@@H](NC(=O)[C@H](C)NC(=O)[C@@H]1CSSC[C@H](NC(=O)[C@@H](N)CCCCN)C(=O)N[C@@H](CC(N)=O)C(=O)N[C@@H]([C@@H](C)O)C(=O)N[C@@H](C)C(=O)N[C@@H]([C@@H](C)O)C(=O)N1)[C@@H](C)O)C(C)C)C(=O)N[C@@H](CC(C)C)C(=O)N1CCC[C@H]1C(=O)N1CCC[C@H]1C(=O)N[C@H](C(=O)N[C@@H](CC(N)=O)C(=O)N[C@H](C(=O)NCC(=O)N[C@@H](CO)C(=O)N[C@@H](CC(N)=O)C(=O)N[C@H](C(=O)N[C@@H](Cc1ccc(O)cc1)C(N)=O)[C@@H](C)O)C(C)C)[C@@H](C)O` [pramlintide, reference compound], for which, in data set [2], the “cCTR pEC50” value was determined as 10.90. Moreover, in data set [3], the “Ratio CTR/AMY3R (mouse, functional)” value is on record as 8. The “Ratio CTR/AMY3R (canine, binding)” value in data set [4] was found to be 112. Further, the half-maximal effective concentration (EC50) in data set [5] is 3.09 nM. Besides, the half-life in plasma in data set [6] was 30 to 50 min. Moreover, the “cAMY3R pEC50” value in [7] (setting [11]) is recorded as 10.88. For the same compound, the “Ratio CTR/AMY3R (canine, functional)” value in data set [7] (setting [12]) was 1. For the same compound, the “cAMY1R pEC50” value in data set [8] (setting [11]) is 10.77. Moreover, in [8] (setting [12]), the “Ratio CTR/AMY1R (canine, functional)” value is 1. In addition, the “Ratio CTR/AMY1R (canine, binding)” value in data set [9] was determined as 67.
